Results taken from US9796709B2, “5-hydroxy-4-(trifluoromethyl)pyrazolopyridine derivative” (Daiichi Sankyo Company, Limited, priority 2013, dated 2017).

biological target: T1, LCAT (Homo sapiens, UniProt P04180); assay: LCAT activity measurement (in vitro), [14C]cholesterol esterification with HDL3 fraction; type: biochemical; settings: HDL3 fraction from plasma of a healthy person as enzyme source and acceptor; 37° C., approximately 16 hours; relative to sample without test drug; read-out: EC50 of LCAT activation
T1 construct: The obtained fraction was dialyzed against phosphate-buffered saline (pH 7.4) and used as an enzyme source and an acceptor for LCAT; from tissue; host or cells: HDL3 fraction (1.125 < specific gravity < 1.210 g/mL) of plasma from a healthy person
T1 sequence (P04180 25-440): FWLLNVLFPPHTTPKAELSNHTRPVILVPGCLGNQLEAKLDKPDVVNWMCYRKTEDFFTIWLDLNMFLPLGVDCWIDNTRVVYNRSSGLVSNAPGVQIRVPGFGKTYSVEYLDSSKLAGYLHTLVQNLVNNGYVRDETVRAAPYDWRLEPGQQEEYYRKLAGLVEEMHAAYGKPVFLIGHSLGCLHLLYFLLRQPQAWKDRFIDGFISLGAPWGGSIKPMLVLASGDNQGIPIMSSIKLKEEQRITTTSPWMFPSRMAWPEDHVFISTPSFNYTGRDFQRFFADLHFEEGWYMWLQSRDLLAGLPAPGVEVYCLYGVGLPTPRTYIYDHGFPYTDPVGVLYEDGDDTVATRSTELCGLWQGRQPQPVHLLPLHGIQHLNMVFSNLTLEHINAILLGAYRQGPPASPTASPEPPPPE
Experimental: A fraction composed of HDL3 (1.125 <specific gravity <1.210 g/mL) was obtained from the plasma of a healthy person by density gradient centrifugation. The obtained fraction was dialyzed against phosphate-buffered saline (pH 7.4) and used as an enzyme source and an acceptor for LCAT. Each test drug was prepared by dissolution in dimethyl sulfoxide. [^14C]Cholesterol containing DTNB (Ellman's reagent, final concentration: 0.5 mM), mercaptoethanol (final concentration: 12.5 mM), and 0.6% bovine serum albumin was added to phosphate-buffered saline (pH 7.4) containing 1 mg/mL HDL3, and the test drug was further added thereto at varying concentrations to adjust the whole amount to 80 μL. This mixture was incubated at 37° C. for approximately 16 hours. Then, a mixed solution of hexane and isopropanol (mixing ratio=3:2) was added thereto to stop the reaction. After stirring, the hexane layer was collected, and this layer was evaporated to dryness. A chloroform solution (concentration: 10 mg/mL) was added thereto, and the mixture was spotted onto a thin-layer silica gel plate and developed using a mixed solution of hexane, diethyl ether, and ethyl acetate (mixing ratio=85:15:2). The radioactivity of a portion corresponding to cholesterol oleate was measured using an imaging analyzer BAS-2500 (manufactured by Fujifilm Corp.). A sample non-supplemented with the test drug was similarly treated and assayed. The EC50 value of LCAT activation was calculated according to the expression given below relative to LCAT activity in the sample non-supplemented with the test drug.
[formula] • wherein X represents the logarithm of the concentration of the test drug; • Y represents the responsiveness (LCAT activity) of the test drug; • Top represents the maximum value (maximum plateau); • Bottom represents the minimum value (minimum plateau); and • EC50 represents the 50% effective concentration.

Question: How did the EC50 turn out when O=C1Nc2[nH]nc(C3CCN(c4ccc(C(F)(F)F)cn4)CC3)c2[C@@H](C(F)(F)F)[C@@H]1O (racemic) [Example 1, trans-5-Hydroxy-4-(trifluoromethyl)-3-{1-[5-(trifluoromethyl)pyridin-2-yl]piperidin-4-yl}-1,4,5,7-tetrahydro-6H-pyrazolo[3,4-b]pyridin-6-one] was run?
Answer: 880 nM

Question: Which EC50 does the source give for O=C1Nc2[nH]nc(C3CCN(c4ccc(C(F)(F)F)cn4)CC3)c2[C@@H](C(F)(F)F)[C@H]1O (racemic) [Example 2, cis-5-Hydroxy-4-(trifluoromethyl)-3-{1-[5-(trifluoromethyl)pyridin-2-yl]piperidin-4-yl}-1,4,5,7-tetrahydro-6H-pyrazolo[3,4-b]pyridin-6-one] here?
Answer: 40 nM

Question: Which EC50 does the source give for CC(C)Oc1ccc(N2CCC(c3n[nH]c4c3[C@@H](C(F)(F)F)[C@@H](O)C(=O)N4)CC2)nc1 (racemic) [Example 5, cis-5-Hydroxy-3-[1-(5-isopropoxypyridin-2-yl)piperidin-4-yl]-4-(trifluoromethyl)-1,4,5,7-tetrahydro-6H-pyrazolo[3,4-b]pyridin-6-one] here?
Answer: 160 nM

Question: O=C1Nc2[nH]nc(C3CCN(c4ccc(C(F)(F)F)nn4)CC3)c2[C@@H](C(F)(F)F)[C@@H]1O (racemic) [Example 6, trans-5-Hydroxy-4-(trifluoromethyl)-3-{1-[6-(trifluoromethyl)pyridazin-3-yl]piperidin-4-yl}-1,4,5,7-tetrahydro-6H-pyrazolo[3,4-b]pyridin-6-one] was tested. Which EC50 did it give?
Answer: 2220 nM

Question: O=C1Nc2[nH]nc(C3CCN(c4ccc(C(F)(F)F)nn4)CC3)c2[C@@H](C(F)(F)F)[C@H]1O (racemic) [Example 7, cis-5-Hydroxy-4-(trifluoromethyl)-3-{1-[6-(trifluoromethyl)pyridazin-3-yl]piperidin-4-yl}-1,4,5,7-tetrahydro-6H-pyrazolo[3,4-b]pyridin-6-one] was tested. Which EC50 did it give?
Answer: 110 nM

Question: CC(C)c1nc(N2CCC(c3n[nH]c4c3[C@@H](C(F)(F)F)[C@H](O)C(=O)N4)CC2)cc(C(F)(F)F)n1 (racemic) [Example 8, trans-5-Hydroxy-3-{1-[2-isopropyl-6-(trifluoromethyl)pyrimidin-4-yl]piperidin-4-yl}-4-(trifluoromethyl)-1,4,5,7-tetrahydro-6H-pyrazolo[3,4-b]pyridin-6-one] was tested. Which EC50 did it give?
Answer: 630 nM

Question: How did the EC50 turn out when CC(C)c1nc(N2CCC(c3n[nH]c4c3[C@@H](C(F)(F)F)[C@@H](O)C(=O)N4)CC2)cc(C(F)(F)F)n1 (racemic) [Example 9, cis-5-Hydroxy-3-{1-[2-isopropyl-6-(trifluoromethyl)pyrimidin-4-yl]piperidin-4-yl}-4-(trifluoromethyl)-1,4,5,7-tetrahydro-6H-pyrazolo[3,4-b]pyridin-6-one] was run?
Answer: 27 nM

Question: With O=C1Nc2[nH]nc(C3CCN(c4cnc(C(F)(F)F)cn4)CC3)c2[C@@H](C(F)(F)F)[C@@H]1O (racemic) [Example 10, trans-5-Hydroxy-4-(trifluoromethyl)-3-{1-[5-(trifluoromethyl)pyrazin-2-yl]piperidin-4-yl}-1,4,5,7-tetrahydro-6H-pyrazolo[3,4-b]pyridin-6-one] as the compound, how does the EC50 read?
Answer: 340 nM

Question: Which EC50 does the source give for O=C1Nc2[nH]nc(C3CCN(c4cnc(C(F)(F)F)cn4)CC3)c2[C@@H](C(F)(F)F)[C@H]1O (racemic) [Example 11, cis-5-Hydroxy-4-(trifluoromethyl)-3-{l-[5-(trifluoromethyl)pyrazin-2-yl]piperidin-4-yl}-1,4,5,7-tetrahydro-6H-pyrazolo[3,4-b]pyridin-6-one] here?
Answer: 29 nM

Question: How did the EC50 turn out when O=C1Nc2[nH]nc(C3CCN(c4cnc(C(F)(F)F)nc4)CC3)c2[C@@H](C(F)(F)F)[C@H]1O (racemic) [Example 12, cis-5-Hydroxy-4-(trifluoromethyl)-3-{1-[2-(trifluoromethyl)pyrimidin-5-yl]piperidin-4-yl}-1,4,5,7-tetrahydro-6H-pyrazolo[3,4-b]pyridin-6-one] was run?
Answer: 35 nM

Question: With N#Cc1cnc(N2CCC(c3n[nH]c4c3[C@@H](C(F)(F)F)[C@@H](O)C(=O)N4)CC2)cc1C(F)(F)F (racemic) [Example 13, 6-{4-[cis-5-Hydroxy-6-oxo-4-(trifluoromethyl)-4,5,6,7-tetrahydro-1H-pyrazolo[3,4-b]pyridin-3-yl]piperidin-1-yl}-4-(trifluoromethyl)pyridine-3-carbonitrile] as the compound, how does the EC50 read?
Answer: 37 nM

Question: Which EC50 does the source give for O=C1Nc2[nH]nc(C3CCN(c4ncc(C(F)(F)F)cc4Cl)CC3)c2[C@@H](C(F)(F)F)[C@H]1O (racemic) [Example 14, cis-3-{1-[3-Chloro-5-(trifluoromethyl)pyridin-2-yl]piperidin-4-yl}-5-hydroxy-4-(trifluoromethyl)-1,4,5,7-tetrahydro-6H-pyrazolo[3,4-b]pyridin-6-one] here?
Answer: 380 nM

Question: How did the EC50 turn out when O=C1Nc2[nH]nc(C3CCN(c4nc(C(F)(F)F)cs4)CC3)c2[C@@H](C(F)(F)F)[C@H]1O (racemic) [Example 15, cis-5-Hydroxy-4-(trifluoromethyl)-3-{1-[4-(trifluoromethyl)-1,3-thiazol-2-yl]piperidin-4-yl}-1,4,5,7-tetrahydro-6H-pyrazolo[3,4-b]pyridin-6-one] was run?
Answer: 290 nM

Question: With O=C1Nc2[nH]nc(C3CCN(c4cccc(C(F)(F)F)n4)CC3)c2[C@@H](C(F)(F)F)[C@H]1O (racemic) [Example 16, cis-5-Hydroxy-4-(trifluoromethyl)-3-{1-[6-(trifluoromethyl)pyridin-2-yl]piperidin-4-yl}-1,4,5,7-tetrahydro-6H-pyrazolo[3,4-b]pyridin-6-one] as the compound, how does the EC50 read?
Answer: 62 nM

Question: How did the EC50 turn out when O=C1Nc2[nH]nc(C3CCN(c4cc(C(F)(F)F)ccn4)CC3)c2[C@@H](C(F)(F)F)[C@H]1O (racemic) [Example 17, cis-5-Hydroxy-4-(trifluoromethyl)-3-{1-[4-(trifluoromethyl)pyridin-2-yl]piperidin-4-yl}-1,4,5,7-tetrahydro-6H-pyrazolo[3,4-b]pyridin-6-one] was run?
Answer: 31 nM

Question: Which EC50 does the source give for O=C1Nc2[nH]nc(C3CCN(c4cc(C(=O)N5CCCCC5)c(C(F)(F)F)cn4)CC3)c2[C@@H](C(F)(F)F)[C@H]1O (racemic) [Example 33, cis-5-Hydroxy-3-{1-[4-(piperidin-1-ylcarbonyl)-5-(trifluoromethyl)pyridin-2-yl]piperidin-4-yl}-4-(trifluoromethyl)-1,4,5,7-tetrahydro-6H-pyrazolo[3,4-b]pyridin-6-one] here?
Answer: 57 nM

Question: Which EC50 does the source give for O=C1Nc2[nH]nc(C3CCN(c4ccc(OC(F)F)cn4)CC3)c2[C@@H](C(F)(F)F)[C@H]1O (racemic) [Example 37, cis-3-{1-[5-(Difluoromethoxy)pyridin-2-yl]piperidin-4-yl}-5-hydroxy-4-(trifluoromethyl)-1,4,5,7-tetrahydro-6H-pyrazolo[3,4-b]pyridin-6-one] here?
Answer: 94 nM

Question: Which EC50 does the source give for O=C1Nc2[nH]nc(C3CCN(c4ccc(C(F)(F)F)nn4)CC3)c2[C@@H](C(F)(F)F)[C@H]1O (single isomer, unassigned) [Example 19, (+)-cis-5-Hydroxy-4-(trifluoromethyl)-3-{1-[6-(trifluoromethyl)pyridazin-3-yl]piperidin-4-yl}-1,4,5,7-tetrahydro-6H-pyrazolo[3,4-b]pyridin-6-one] here?
Answer: 35 nM

Question: Which EC50 does the source give for O=C1Nc2[nH]nc(C3CCN(c4ccc(C(F)(F)F)nc4)CC3)c2[C@@H](C(F)(F)F)[C@H]1O (single isomer, unassigned) [Example 23, (+)-cis-5-Hydroxy-4-(trifluoromethyl)-3-{1-[6-(trifluoromethyl)pyridin-3-yl]piperidin-4-yl}-1,4,5,7-tetrahydro-6H-pyrazolo[3,4-b]pyridin-6-one] here?
Answer: 8 nM

Question: Which EC50 does the source give for N#Cc1ncc(N2CCC(c3n[nH]c4c3[C@@H](C(F)(F)F)[C@@H](O)C(=O)N4)CC2)cc1F (single isomer, unassigned) [Example 24, (+)-3-Fluoro-5-{4-[cis-5-hydroxy-6-oxo-4-(trifluoromethyl)-4,5,6,7-tetrahydro-1H-pyrazolo[3,4-b]pyridin-3-yl]piperidin-1-yl}pyridine-2-carbonitrile] here?
Answer: 30 nM

Question: For O=C1Nc2[nH]nc(C3CCN(c4ccnc(C(F)(F)F)n4)CC3)c2[C@@H](C(F)(F)F)[C@H]1O (single isomer, unassigned) [Example 25, (+)-cis-5-Hydroxy-4-(trifluoromethyl)-3-{1-[2-(trifluoromethyl)pyrimidin-4-yl]piperidin-4-yl}-1,4,5,7-tetrahydro-6H-pyrazolo[3,4-b]pyridin-6-one], which EC50 is on record?
Answer: 100 nM
